# Values of other authors as cited in patent US6762172B1, “Water-stabilized organosilane compounds and methods for using the same” (Nova Biogenetics, Inc., priority 1997, dated 2004).
# Settings: mixture with water, non-stabilized
smiles,measurement,value
CCCCCCCCCCCCCCCCCC[N+](C)(C)CCC[Si](OC)(OC)OC.[Cl-] [3-(trimethoxysilyl)propyl-dimethyloctadecyl ammonium chloride],begins to lose effectiveness,four to eight
